We go through three compounds from paper PMC7998669, “7-(2-Anilinopyrimidin-4-yl)-1-benzazepin-2-ones Designed by a “Cut and Glue” Strategy Are Dual Aurora A/VEGF-R Kinase Inhibitors” (Molecules, 2021).

Values after ≈ are worked out from the molar mass of the structure shown.

One data set has as its system NCI-H522. Kind of data set: NCI cancer cell line screen (sulforhodamin B). It is filed as cell-based. As to conditions: Homo sapiens; NCI-H522, NSCL; 48 h; read-out: log10 GI50 (converted). On the procedure: (§1) The new dual Aurora A/VEGF-R inhibitors 2e and 2n were selected by the National Cancer Institute for screening in its broad cancer cell line panel. The NCI in vitro assay is performed by incubation of cells with test compounds for 48 h and subsequent cell fixation with trichloroacetic acid. The pink dye sulforhodamin B is added, which binds to the proteins of the fixed cells. After washing and solubilizing the bound stain, the optical density is measured spectrophotometrically to determine the relative proliferation of treated and untreated cells.
(§2) Simultaneous inhibition of the Aurora A kinase and the VEGF-R2/3 receptor kinases may represent an interesting dual activity for the treatment of cancer. The National Cancer Institute selected the compounds 2e and 2n as representatives with particularly high inhibitory activity on the above kinases for testing in the IVCLS (in vitro cell line screening). In this screening, compounds are tested for antiproliferative activity on about 60 in vitro cultivated tumor cell lines. Based on this very broad screening on cell lines from nine tumor entities the general antiproliferative potency of compounds is determined. In addition, the bioinformatic tool COMPARE allowed one to draw conclusions on the molecular target of the compounds from the activity patterns on the different cell lines. Similar molecular mechanisms of action of two compounds are assumed if a Pearson correlation coefficient (PCC) of > 0.6 is calculated by COMPARE [52, 53]. […] The selectivity profile of the two compounds is not very pronounced given the overall very similar proliferation inhibition values across all cell lines. A COMPARE analysis determined a PCC = 0.61 for the patterns of test compounds 2e and 2n, which is consistent with an analogous mechanism of action. However, whether this mechanism is actually based on the inhibition of the inhibited Aurora kinases and VEGF receptor kinases cannot be deduced from these profiles.

The next data set relates to SK-MEL-5. As to the kind of experiment: NCI cancer cell line screen (sulforhodamin B). It is filed as cell-based. As to conditions: Homo sapiens; SK-MEL-5, Melanoma; 48 h; read-out: log10 GI50 (converted). On the procedure:
as §1, §2

The subject of the next data set is MCF7. As to the kind of experiment: NCI cancer cell line screen (sulforhodamin B). In kind it is cell-based. As to conditions: Homo sapiens; MCF7, Breast; 48 h; read-out: log10 GI50 (converted). On the procedure:
as §1, §2

The test system of another data set is OVCAR-5. As to the kind of experiment: NCI cancer cell line screen (sulforhodamin B). The settings on record: Homo sapiens; OVCAR-5, Ovarian; 48 h; read-out: log10 GI50 (converted). In kind it is cell-based. As to the method: as §1, §2
The test system of the next data set is NCI-H226. Kind of data set: NCI cancer cell line screen (sulforhodamin B). In kind it is cell-based. The settings on record: Homo sapiens; NCI-H226, NSCL; 48 h; read-out: log10 GI50 (converted). As to the method:
as §1, §2

The test system of the next data set is KM12. Kind of data set: NCI cancer cell line screen (sulforhodamin B). In kind it is cell-based. The settings on record: Homo sapiens; KM12, Colon; 48 h; read-out: log10 GI50 (converted). On the procedure:
as §1, §2

Another data set relates to UACC-62. Kind of data set: NCI cancer cell line screen (sulforhodamin B). In kind it is cell-based. The settings on record: Homo sapiens; UACC-62, Melanoma; 48 h; read-out: log10 GI50 (converted). As to the method:
as §1, §2

The test system of the next data set is T-47D. Kind of data set: NCI cancer cell line screen (sulforhodamin B). In kind it is cell-based. As to conditions: Homo sapiens, T47D, Breast, 48 h, read-out: log10 GI50 (converted). On the procedure:
as §1, §2

The test system of a further data set is HT29. Kind of data set: NCI cancer cell line screen (sulforhodamin B). It is filed as cell-based. As to conditions: Homo sapiens, HT-29; HT29, Colon; 48 h; read-out: log10 GI50 (converted). As to the method: as §1, §2
A further data set relates to NCI-H322M. As to the kind of experiment: NCI cancer cell line screen (sulforhodamin B). It is filed as cell-based. The settings on record: Homo sapiens, NSCL, 48 h, read-out: log10 GI50 (converted). As to the method:
as §1, §2

In the next data set the test system is U251. Kind of data set: NCI cancer cell line screen (sulforhodamin B). In kind it is cell-based. As to conditions: Homo sapiens, U-251; U251, CNS; 48 h; read-out: log10 GI50 (converted). On the procedure:
as §1, §2

A further data set relates to ACHN. As to the kind of experiment: NCI cancer cell line screen (sulforhodamin B). In kind it is cell-based. The settings on record: Homo sapiens, Renal, 48 h, read-out: log10 GI50 (converted). As to the method: as §1, §2
The next data set relates to RXF 393. As to the kind of experiment: NCI cancer cell line screen (sulforhodamin B). The settings on record: Homo sapiens; RXF 393, Renal; 48 h; read-out: log10 GI50 (converted). In kind it is cell-based. On the procedure: as §1, §2
The next data set deals with CAKl-1. Kind of data set: NCI cancer cell line screen (sulforhodamin B). It is filed as cell-based. As to conditions: Homo sapiens; CAKl-1, Renal; 48 h; read-out: log10 GI50 (converted). On the procedure: as §1, §2
A further data set concerns MDA-MB-435. Kind of data set: NCI cancer cell line screen (sulforhodamin B). In kind it is cell-based. The settings on record: Homo sapiens; MDA-MB-435, Melanoma; 48 h; read-out: log10 GI50 (converted). As to the method:
as §1, §2

The next data set relates to PC-3. As to the kind of experiment: NCI cancer cell line screen (sulforhodamin B). It is filed as cell-based. As to conditions: Homo sapiens; PC-3, Prostate; 48 h; read-out: log10 GI50 (converted). On the procedure: as §1, §2
In another data set the test system is IGROV1. As to the kind of experiment: NCI cancer cell line screen (sulforhodamin B). As to conditions: Homo sapiens, IGROV-1; IGROV1, Ovarian; 48 h; read-out: log10 GI50 (converted). In kind it is cell-based. On the procedure: as §1, §2
The test system of the next data set is RPMl-8226. As to the kind of experiment: NCI cancer cell line screen (sulforhodamin B). It is filed as cell-based. The settings on record: Homo sapiens; RPMl-8226, Leukemia; 48 h; read-out: log10 GI50 (converted). On the procedure: as §1, §2
A short description of data set [1]: kinetic solubility by nephelometry. The settings on record: phosphate buffer, 25 °C, pH 7.4, aqueous buffer, kinetic from dmso stock, phosphate buffer pH 7.4, 1% DMSO, mean of two measurements, range in brackets. In kind it is physicochemical. As to the method: The kinetic solubility of test compounds was determined by nephelometry. Dilution series of test compounds in DMSO with eight to ten different concentrations were prepared. The dilutions were pipetted (2 µL) into the cavities of a 96 well plate (CorningTM UV-transparent flat-bottom microtiter plate; Corning Incorporated, Kennebunk, ME, USA). A phosphate buffer solution pH 7.4 (198 µL) was added, so that the DMSO concentration in the measured solutions was 1%. Three wells were filled with DMSO and phosphate buffer pH 7.4 (2:198) and measured as blank values. The 96 well plate prepared in this way was measured with the NEPHELOstar® Plus nephelometer (BMG Labtech GmbH, Ortenberg, Germany, software: Omega 5.11) at a temperature of 25 °C. Previously, the plate was shaken at 500 rpm for 10 s and the laser intensity was set to 80%. The beam focus was set to 2.50 mm. If the test substance is completely soluble, only a scattering close to the blank value is detected. As soon as a critical concentration is reached in which the kinetic solubility of the test compound is exceeded, solid particles precipitate. Undissolved particles in the sample scatter the laser beam. The intensity of the scattered light is determined, which is proportional to the number of particles in the solution. The blank values were determined and subtracted from the measured values of the test compounds. By measuring different concentrations of the test substances, different intensities of the scattered light, indicated as RNU (relative nephelometric units), were determined. Kick off curves were obtained by plotting concentrations against the RNU values. The point of intersection of the horizontal and of the ascending part of the kick-off curve indicated the kinetic solubility concentration.

The term GI50 denotes the concentration that inhibits growth by half. For `O=C1CCCc2cc(-c3ccnc(Nc4ccc(O)cc4)n3)ccc2N1` [Compound 2e, 7-[2-(4-Hydroxyanilino)pyrimidin-4-yl]-1,3,4,5-tetrahydro-2H-1-benzazepin-2-one], the concentration for 50% growth inhibition (GI50) with NCI-H522 is 4.47 µM; with SK-MEL-5, 3.09 µM; in the data set with MCF7, 4.27 µM; in the data set on OVCAR-5, 6.46 µM; with NCI-H226 it was 29.5 µM; with KM12, 2.57 µM. Also, the concentration for 50% growth inhibition (GI50) is 9.12 µM in the data set on UACC-62; 1.55 µM in the data set with T-47D; 5.13 µM in the data set on HT29; 4.07 µM in the data set on NCI-H322M; 6.03 µM in the data set on U251; 2.57 µM in the data set with ACHN. Moreover, the GI50 is 1.86 µM in the data set on RXF 393; 4.17 µM with CAKl-1; 3.63 µM in the data set with MDA-MB-435; 4.9 µM in the data set with PC-3; 2.51 µM in the data set with IGROV1; 3.24 µM in the data set with RPMl-8226.

Usually kinetic solubility stands for solubility judged after dilution from a stock solution rather than from solid. For `COc1ccc(Nc2nccc(-c3ccc4c(c3)CCCC(=O)N4)n2)cc1O` [Compound 2n, 7-[2-(3-Hydroxy-4-methoxyanilino)pyrimidin-4-yl]-1,3,4,5-tetrahydro-2H-1-benzazepin-2-one], in data set [1], the solubility (kinetic) at 10 s was found to be 92.6 µM (≈ 34.9 µg/mL). Moreover, the GI50 with NCI-H522 is 10 µM; in the data set with SK-MEL-5, 10 µM; with MCF7, 5.13 µM; with OVCAR-5, 8.71 µM; with NCI-H226, 9.12 µM; in the data set with KM12, 4.79 µM. For the same compound, the 50% growth inhibitory concentration (GI50) with UACC-62 is 9.33 µM; with T-47D, 4.07 µM; in the data set on HT29, 13.2 µM; in the data set with NCI-H322M, 30.9 µM; with U251 it was 10.2 µM; with ACHN, 4.17 µM. Further, the 50% growth inhibitory concentration (GI50) is 2.69 µM with RXF 393; 5.62 µM with CAKl-1; 5.25 µM with MDA-MB-435; 12.6 µM with PC-3; 3.02 µM in the data set on IGROV1; 5.25 µM in the data set on RPMl-8226.

For `O=C1CCCc2cc(-c3ccnc(Nc4ccccc4)n3)ccc2N1` [Compound 2a, 7-(2-Anilinopyrimidin-4-yl)-1,3,4,5-tetrahydro-2H-1-benzazepin-2-one], the kinetic solubility at 10 s in data set [1] was ~50 µM (≈ 16.5 µg/mL).
